Laboratory results reported in patent publication US20250313808A1, “LIQUID CRYSTAL SCAFFOLDS AND USE THEREOF FOR ORGANOID, SPHEROID, AND 3D CELLAGGREGATE MANUFACTURING” (THE REGENTS OF THE UNIVERSITY OF CALIFORNIA, priority 2022, published 2025).

Experiment: Cell growth on CLC versus other substrates (FIG. 13)
Type: cell-based
Details: CLC compared to PDMS, agarose or cholesteryl oleyl carbonate substrates
Experimental: Varying ratio of mesogen were weighted to generate a scaffold with desirable phase transition. The mesogens were heated to the melt phase of about 80° C. and then pipetted onto surfaces to create CLC-coated substrates. The substrates were then placed in well plates cell culture media and cells were added to the substrates using traditional cell seeding techniques. The scaffold directed cellular organization once the scaffold was placed in the cell culture incubator with seeded cells on the surface.

## CCCCCCCC/C=C\CCCCCCCCOC(=O)O[C@H]1CC[C@@]2(C)C(=CC[C@H]3[C@@H]4CC[C@H]([C@H](C)CCCC(C)C)[C@@]4(C)CC[C@@H]32)C1 [cholesteryl oleyl carbonate]
  cell growth on substrate: cell growth was only observed on CLC substrate
